Test results taken from paper PMC11679033, “Assessing the Potential Synergistic/Antagonistic Effects of Citrinin and Cannabidiol on SH-SY5Y, HepG2, HEK293 Cell Lines, and Human Lymphocytes” (Toxins, 2024).
Several values for one entry are separate records, joined by “and”; a condition that tells them apart may be missing. Identical values can stand only once.

Assays:
HepG2 cells [1] = assay: MTS viability assay, HepG2; format: cell-based, human; details: for lowest observed adverse effect level (LOAEL), approximate / cell viability at LOAEL concentrations: HepG2, 24 h; for cell viability at LOAEL concentrations: CBD 1 μM, CIT 30 μM, alone or combined
Method: (§1) Human neuroblastoma SH-SY5Y cells (ECACC 94030304), human hepatocyte carcinoma HepG2 (ECACC 85011430) and human embryonic kidney HEK293 (ECACC 85120602) used in the experiments were obtained from the European Collection of Authenticated Cell Cultures (ECACC) through Sigma-Aldrich (Steinheim, Germany). SH-SY5Y cells were grown in Dulbecco’s Modified Eagle’s Medium F12 containing 15% (v/v) fetal bovine serum (FBS), 2 mM glutamine, 1% (v/v) penicillin/streptomycin (PenStrep solution), and 1% (v/v) non-essential amino acids (NEAA solution). HEK293 and HepG2 cells were grown in EMEM medium (Sigma-Aldrich, Steinheim, Germany) supplemented with 10% (v/v) FBS, 2 mM glutamine, 1% (v/v) PenStrep and 1% (v/v) NEAA. All media and supplements were purchased from Sigma-Aldrich, Steinheim, Germany. Cells were cultured at 37 °C in a 5% CO2 atmosphere, the medium was changed every two days, and passage was carried out according to the manufacturer’s protocol.
(§2) MTS assay (CellTiter 96® AQueous One Solution Cell Proliferation Assay, Promega, Madison, WI, USA) was used to determine the viability of cells/cytotoxic properties of tested compounds by measuring cells’ mitochondrial succinate dehydrogenase activity. The procedure followed a previously described protocol. In brief, the cells were seeded in transparent 96-well plates at a density of 20,000 cells/well one day before the experiment and treated with tested compounds in concentrations: 0.01, 0.1, 0.5, 1, 2, 5, 10, 25, 50, 100 and 300 µM. Triton X-100 at a final concentration of 0.18% (v/v) (stock of 9% in water; Sigma-Aldrich, Steinheim, Germany) was used as a positive control. After 24 h, treatment with tested compounds and incubation with MTS reagent, the absorbance was read at 492 nm on an Infinite M200PRO (Tecan Group Ltd., Männedorf, Switzerland) plate reader. Data were taken from at least three independent experiments (each treatment performed in duplicate or triplicate) and expressed as percentages (mean ± standard error) of viable cells compared to control (untreated) cells. IC50 values were determined by a nonlinear fit equation predefined in Prism software 8 (GraphPad Software, San Diego, CA, USA).
(§3) The same method was used to evaluate a potential toxic synergistic effect on cells exposed to a combination of CBD and CIT at approximately LOAEL doses (lowest observed adverse effect level, 1 and 30 μM for SH-SY5Y and HepG2, and 2 and 0.05 μM for HEK293, respectively). There is no official recommendation for CBD oral use, but according to the available literature, we used a dose that corresponded to daily intake, which was 10 mg/kg/day (calculated on a person of 70 kg ~ 1 μM). These selected LOAEL concentrations were used for all other assays as well.

[2] = MTS viability assay, HepG2; format: cell-based, human; details: human, HepG2 cells; HepG2, 24 h exposure, MTS; read-out: IC50 (cytotoxicity)
Method: as §1, §2, §3

[3] = Lymphocyte proliferation / cytotoxicity (CBPI, RI); format: cell-based, human; details: human, citrinin 7.50 µg/mL, CBD 3.15 µg/mL, bleomycin 1.25 µg/mL, deduced from RI
From the text: (§4) On the same slides, parameters of cell proliferation, cytostasis and cytotoxicity were studied, according to recommendations by OECD 2023 [67]. For that purpose, the numbers of mono-, bi-, tri-, and quadrinuclear cells (i.e., M1, M2, M3, M4) were scored at 400× magnification using a light microscope (Leitz, Oberkochen, Germany). The total number of M1 to M4 cells counted per experimental group was 3000 (i.e., 6 × 500 cells).
(§5) Based on the scored ratios of M1 to M4 cells, the Cytokinesis-Block Proliferation Index (CBPI) was calculated, using the formula: CBPI = [(No. of mononucleated cells) + (2 × No. of binucleated cells) + (3 × No. of multinucleated cells)]/(Total number of cells).
(§6) To establish the relative number of cell cycles per cell during the period of exposure to cytoB in treated compared to control cultures, the Replication Index (RI) was also calculated according to the formula:RI = {[(<No. binucleated cells> + <2 × No. multinucleated cells>)/(Total number of cells in treated culture)]/[(<No. binucleated cells> + <2 × No. multinucleated cells>) […] (Total number of cells in control culture)]} × 100
(§7) Finally, from the obtained values of RI, the cytotoxicity estimate was deduced, as % Cytotoxicity = […].

[4] = tested on: human peripheral blood lymphocytes; assay: Lymphocyte proliferation / cytotoxicity (CBPI, RI); format: cell-based; details: 24 h, citrinin 7.50 µg/mL, CBD 3.15 µg/mL, bleomycin 1.25 µg/mL; for Cytokinesis-Block Proliferation Index: 3000 cells scored; for Replication Index (%): relative to negative control
From the text: as §4, §5, §6, §7

SH-SY5Y cells = assay: MTS viability assay, SH-SY5Y; format: cell-based, human; details: for IC20: Homo sapiens, established on SH-SY5Y and HepG2 cell models, read-out: IC20 concentration; for lowest observed adverse effect level (LOAEL), approximate / cell viability at LOAEL concentrations: SH-SY5Y, 24 h; for cell viability at LOAEL concentrations: CBD 1 μM, CIT 30 μM, alone or combined
Method: as §1, §2, §3

[5] = MTS viability assay, SH-SY5Y; format: cell-based, human; details: human, SH-SY5Y cells; SH-SY5Y, 24 h exposure, MTS; read-out: IC50 (cytotoxicity)
Method: as §1, §2, §3

HepG2 cells [6] = assay: Cell membrane integrity (LDH release), HepG2; format: cell-based, human; details: HepG2, 24 h; CBD 1 μM, CIT 30 μM, alone or combined
Method: Cell membrane integrity was determined after exposure to compounds’ concentrations corresponding to LOAEL concentrations in 24 h by measuring the release of the intracellular lactate dehydrogenase (LDH) and the procedure followed a previously described protocol using The CytoTox-ONE™ Homogeneous Membrane Integrity Assay (Promega, Madison, WI, USA). In short, the cells were seeded in black 96-well plates at a density of 10,000 cells/well one day before the experiment and treated with selected LOAEL concentrations. Triton X-100 at a final concentration of 0.18% (v/v) (stock of 9% in water) was used as a positive control to determine the maximal LDH release. Data were taken from at least two independent experiments (each treatment performed in duplicate or triplicate) and plotted as a percentage of LDH release compared to the determined maximal LDH release, according to the manufacturer’s calculation protocol.

SMILES | lowest observed adverse effect level (LOAEL), approximate (HepG2 cells [1]) | cell viability at LOAEL concentrations (HepG2 cells [1]) | IC50 at 24 h [2] | cytotoxicity at 24 h [3] | Cytokinesis-Block Proliferation Index [4] | Replication Index (%) [4] | IC20 (SH-SY5Y cells) | lowest observed adverse effect level (LOAEL), approximate (SH-SY5Y cells) | cell viability at LOAEL concentrations (SH-SY5Y cells) | IC50 at 24 h [5] | cell membrane integrity (LDH release) (HepG2 cells [6]) | cytotoxicity fold higher than CIT (HepG2 cells [1]; in both HepG2 and SH-SY5Y, 24 h)
CC1=C2C(=CO[C@H](C)[C@H]2C)C(O)=C(C(=O)O)C1=O [CIT, citrinin] | ~30 µM | did not independently impact cell viability | 59 ± 9 µM | 16.5% | 1.83^↓nc, sc, cbd, & | 83.46% | 30 µM and 7.5 µg/mL | ~30 µM | did not independently impact cell viability | 52 ± 8 µM | not significantly compromised | 
C=C(C)[C@@H]1CCC(C)=C[C@H]1c1c(O)cc(CCCCC)cc1O [CBD, cannabidiol] | ~ 1 μM | did not independently impact cell viability | 40 ± 7 µM | 2.86% | 1.96^↓nc, sc | 97.14% | 1 µM and 3.15 µg/mL | ~ 1 μM | did not independently impact cell viability | 13 ± 2 µM | not significantly compromised | 1.5- to 4 fold
